Where two headings read alike, the source gives them in different places.
Experiments:
human VR1 = biological target: T1, human VR1 (Homo sapiens, UniProt Q8NER1); test: Capsaicin-induced Ca2+ influx in the human VR1-transfected CHO cell line (Assay 1); format: cell-based
T1 construct: expressed in transfected cells
How it was run: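 CHO cells expressing human VR1 with an aequorin reporter were treated with compound or vehicle for 20 min at 25° C. Capsaicin-induced Ca^2+ influx was then measured on an FDSS-3000. Integral R was calculated and compared with controls.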

[1] = human VR1-CHOluc9aeq cells, 10 nM capsaicin, compound purity about 40 to 90%, read-out: hVR1 class

T1 sequence (Q8NER1 whole entry): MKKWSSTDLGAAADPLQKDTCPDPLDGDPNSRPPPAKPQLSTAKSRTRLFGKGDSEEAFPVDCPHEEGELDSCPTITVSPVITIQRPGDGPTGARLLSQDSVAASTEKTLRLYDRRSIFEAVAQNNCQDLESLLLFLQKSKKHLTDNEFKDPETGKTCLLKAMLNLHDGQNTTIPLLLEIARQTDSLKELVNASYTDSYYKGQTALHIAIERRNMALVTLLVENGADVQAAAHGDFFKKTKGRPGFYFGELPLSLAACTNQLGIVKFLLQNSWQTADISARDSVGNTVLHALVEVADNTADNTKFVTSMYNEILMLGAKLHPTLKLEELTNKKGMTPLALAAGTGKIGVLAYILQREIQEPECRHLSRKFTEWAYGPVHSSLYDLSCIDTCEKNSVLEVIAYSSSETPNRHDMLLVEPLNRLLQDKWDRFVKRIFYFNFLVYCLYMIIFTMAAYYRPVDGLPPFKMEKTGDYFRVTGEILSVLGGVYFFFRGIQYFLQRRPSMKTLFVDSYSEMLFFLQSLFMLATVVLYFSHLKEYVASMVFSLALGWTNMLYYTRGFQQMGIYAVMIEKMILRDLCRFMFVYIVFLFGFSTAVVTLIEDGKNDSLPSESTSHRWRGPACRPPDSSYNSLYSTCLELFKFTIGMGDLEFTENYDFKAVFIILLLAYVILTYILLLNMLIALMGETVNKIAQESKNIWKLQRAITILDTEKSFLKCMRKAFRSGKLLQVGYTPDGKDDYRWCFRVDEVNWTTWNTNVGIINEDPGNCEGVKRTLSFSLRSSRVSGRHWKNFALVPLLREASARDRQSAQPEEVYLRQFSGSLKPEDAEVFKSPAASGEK

IC50 (human VR1; [1]) [nM]	melting point	IC50 (human VR1; human VR1-CHOluc9aeq cells, 10 nM capsaicin, compound purity about 40 to 90%, read-out: Activity grade) [nM]	Compound	IC50 (human VR1) [nM]
< 100	201 °C	–	Cc1cccc(NC(=O)Nc2ccc(Cl)c(C(F)(F)F)c2)c1CCO [Example 256]	–
< 100	167 °C	–	Cc1ccc(C)c(-c2cccc(NC(=O)Nc3ccccc3CCO)c2)c1 [Example 197]	–
< 100	188 °C	–	O=C(Nc1cccc(-c2cccc(F)c2)c1)Nc1ccccc1CCO [Example 211]	–
< 100	184 °C	–	O=C(Nc1cccc(-c2ccc(OC(F)(F)F)cc2)c1)Nc1ccccc1CCO [Example 240]	–
< 100	150 °C	–	O=C(Nc1cccc(-c2cc(F)ccc2F)c1)Nc1ccccc1CCO [Example 213]	–
< 100	181 °C	–	O=C(Nc1cccc(-c2ccc(F)c(F)c2)c1)Nc1ccccc1CCO [Example 207]	–
< 100	186 to 187 °C	–	N#Cc1cccc(-c2cccc(NC(=O)Nc3ccccc3CCO)c2)c1 [Example 232]	–
< 100	163 °C	–	COc1cccc(-c2cccc(NC(=O)Nc3ccccc3CCO)c2)c1 [Example 242]	–
100 to 500	201 °C	–	O=C(Nc1ccc(Cl)c(C(F)(F)F)c1)Nc1cccc(C(F)(F)F)c1CCO [Example 254]	–
< 100	170 to 172 °C	–	O=C(Nc1ccc(Cl)c(-c2ccc(Cl)cc2)c1)Nc1ccccc1CCO [Example 218]	–
< 100	166 °C	–	O=C(Nc1cccc(-c2cccc(OC(F)(F)F)c2)c1)Nc1ccccc1CCO [Example 239]	–
< 100	184 °C	–	O=C(Nc1cccc(-c2cc(Cl)cc(Cl)c2)c1)Nc1ccccc1CCO [Example 217]	–
< 100	153 °C	–	O=C(Nc1cccc(-c2ccccc2Cl)c1)Nc1ccccc1CCO [Example 196]	–
< 100	158 to 161 °C (dec.)	–	O=C(Nc1ccc(F)c(C(F)(F)F)c1)Nc1ccccc1CCO [Example 184]	–

More lines, now with the values behind:

Compound	IC50 (human VR1; [1]) [nM]	melting point	IC50 (human VR1; human VR1-CHOluc9aeq cells, 10 nM capsaicin, compound purity about 40 to 90%, read-out: Activity grade) [nM]	IC50 (human VR1) [nM]
O=C(Nc1ccc([N+](=O)[O-])cc1)Nc1ccccc1CCO [Example 110]	500 to 1000	178 °C	–	–
COc1ccc(CNC(=O)Nc2ccccc2CCO)cc1 [Example 127]	500 to 1000	175 to 177 °C	–	–
COc1cc(CNC(=O)Nc2ccc(Cl)c(C(F)(F)F)c2)ccc1O [Example 55]	< 100	193 °C	–	–
COC(=O)c1ccccc1NC(=O)Nc1ccccc1CCO [Example 118]	500 to 1000	128 °C	–	–
O=C(Nc1cc(F)c(F)cc1F)Nc1ccccc1CCO [Example 183]	500 to 1000	172 to 174 °C	–	–
COc1ccc(NC(=O)Nc2ccccc2CCO)c(OC)c1 [Example 150]	500 to 1000	189 to 190 °C	–	–
O=C(Nc1cccc(Cl)c1)Nc1ccccc1CCO [Example 105]	500 to 1000	188 to 190 °C	–	–
COc1cc(CNC(=O)Nc2cccc3ccccc23)ccc1O [Example 70]	–	149 °C	–	< 100
Cc1ccccc1Oc1ccccc1NC(=O)Nc1ccccc1CCO [Example 175]	500 to 1000	170 to 172 °C	–	–
O=C(Nc1ccc([N+](=O)[O-])c(C(F)(F)F)c1)Nc1ccccc1CCO [Example 187]	100 to 500	149 to 150 °C	–	–
O=C(Nc1ccc(Cc2ccccc2)cc1)Nc1ccccc1CCO [Example 158]	100 to 500	164 to 166 °C	–	–
O=C(Nc1cccc(OCc2ccccc2)c1)Nc1ccccc1CCO [Example 174]	< 100	146 to 148 °C	–	–
O=C(Nc1ccc(Cl)cc1)Nc1ccccc1CCO [Example 106]	500 to 1000	185 to 187 °C	–	–
COc1cc(CNC(=O)Nc2ccc(C)cc2C)ccc1O [Example 62]	500 to 1000	184 °C	–	–
O=C(Nc1cccc(-c2ccccc2)c1)Nc1ccccc1CCO [Example 3-1, N-(1,1′-biphenyl-3-yl)-N′-[2-(2-hydroxyethyl)phenyl]urea]	–	196 to 198 °C	< 100	–
O=C(Nc1ccc2ccccc2c1)Nc1ccccc1CCO [Example 102]	100 to 500	195 to 197 °C	–	–
O=C(NCc1ccc(Br)cc1)Nc1ccccc1CCO [Example 103]	100 to 500	198 to 200 °C	–	–
O=C(Nc1ccc(F)cc1)Nc1ccccc1CCO [Example 131]	500 to 1000	183 °C	–	–
COc1cc(CNC(=O)Nc2c(C)cc(C)cc2C)ccc1O [Example 72]	500 to 1000	217 °C	–	–

Source: US20050154230A1, “Urea derivatives” (Bayer HealthCare AG, priority 2001, published 2005)
